According to the NIST ThermoML archive (doi:10.1016/j.jct.2012.02.033):

Assays:
[1] = 101.33 kPa, Liquid, Vibrating tube method
[2] = xn = mol fraction of the nth substance listed; settings: 101.3 kPa, Liquid, Vibrating tube method

CCNC=O [N-ethylformamide]
[1]
Settings | mass density [kg/m3]
293.15 K | 951.59
298.15 K | 947.48
303.15 K | 943.29
308.15 K | 939.04
313.15 K | 934.78

CCNC=O [N-ethylformamide] + C1CCOC1
mass density [kg/m3], [2]
Settings | x1 = 0.1142 | x1 = 0.2142 | x1 = 0.3179 | x1 = 0.4258 | x1 = 0.5219 | x1 = 0.6177 | x1 = 0.7146 | x1 = 0.8111 | x1 = 0.9121
293.15 K | 896.3 | 903.1 | 910.05 | 917.17 | 923.35 | 929.34 | 935.26 | 940.88 | 946.8
298.15 K | 890.99 | 897.92 | 905.07 | 912.38 | 918.66 | 924.77 | 930.78 | 936.53 | 942.58
303.15 K | 885.68 | 892.77 | 900.1 | 907.54 | 913.98 | 920.19 | 926.31 | 932.18 | 938.31
308.15 K | 880.28 | 887.57 | 895.02 | 902.62 | 909.25 | 915.53 | 921.81 | 927.84 | 934.01
313.15 K | 874.84 | 882.2 | 889.89 | 897.66 | 904.45 | 910.99 | 917.2 | 923.35 | 929.64

CCNC=O [N-ethylformamide] + CCC(C)=O
mass density [kg/m3], [2]
Settings | x1 = 0.1242 | x1 = 0.2302 | x1 = 0.3384 | x1 = 0.4407 | x1 = 0.5398 | x1 = 0.6369 | x1 = 0.7317 | x1 = 0.8186 | x1 = 0.91
293.15 K | 826.16 | 840.95 | 856.12 | 870.55 | 884.78 | 898.71 | 912.21 | 925 | 938.61
298.15 K | 820.91 | 836.01 | 851.11 | 865.71 | 880.07 | 894.02 | 907.71 | 920.61 | 934.41
303.15 K | 815.8 | 830.97 | 846.25 | 860.93 | 875.4 | 889.48 | 903.31 | 916.28 | 930.12
308.15 K | 810.54 | 825.9 | 841.32 | 856.14 | 870.71 | 884.87 | 898.84 | 911.88 | 925.83
313.15 K | 805.22 | 820.74 | 836.31 | 851.26 | 865.95 | 880.2 | 894.3 | 907.42 | 921.48

CCNC=O [N-ethylformamide] + CCOC(C)=O
mass density [kg/m3], [2]
Settings | x1 = 0.1322 | x1 = 0.2514 | x1 = 0.3559 | x1 = 0.4653 | x1 = 0.564 | x1 = 0.671 | x1 = 0.7544 | x1 = 0.8376 | x1 = 0.9223
293.15 K | 907.89 | 914.13 | 919.39 | 924.91 | 929.7 | 935.01 | 939.27 | 943.3 | 947.63
298.15 K | 901.99 | 908.51 | 914.06 | 919.68 | 924.66 | 930.12 | 934.56 | 938.85 | 943.28
303.15 K | 896.06 | 902.84 | 908.62 | 914.51 | 919.65 | 925.33 | 929.93 | 934.35 | 938.94
308.15 K | 890.09 | 897.16 | 903.23 | 909.29 | 914.62 | 920.5 | 925.29 | 929.86 | 934.56
313.15 K | 884.03 | 891.14 | 897.65 | 903.98 | 909.53 | 915.67 | 920.55 | 925.31 | 930.15

CCC(C)=O [butanone]
[1]
Settings | mass density [kg/m3]
293.15 K | 808.64
298.15 K | 803.24
303.15 K | 797.88
308.15 K | 792.45
313.15 K | 786.94

CCOC(C)=O [ethyl acetate]
[1]
Settings | mass density [kg/m3]
293.15 K | 900.26
298.15 K | 894.14
303.15 K | 887.85
308.15 K | 881.52
313.15 K | 875.14

C1CCOC1 [tetrahydrofuran]
[1]
Settings | mass density [kg/m3]
293.15 K | 888.73
298.15 K | 883.24
303.15 K | 877.6
308.15 K | 872.02
313.15 K | 866.23
